Measurements taken from ChEMBL document CHEMBL1144246, “Design, synthesis and structure-activity relationship of simple bis-amides as potent inhibitors of GlyT1” (Bioorg Med Chem Lett, 2008).
Converted amounts (≈) assume the structure as drawn.

Key:
[1] = Aqueous solubility in phosphate buffer at pH 6.5 by lyophilisation solubility assay; type: physicochemical
[2] = Metabolic stability in mouse liver microsomes assessed as intrinsic clearance per mg protein; type: ADME, Microsome
[3] = Metabolic stability in human liver microsomes assessed as intrinsic clearance per mg protein; type: ADME, Microsome

Row | solubility [1] [µg/mL] | microsomal CLint [2] [µL/min/mg] | microsomal CLint [3] [µL/min/mg] | Structure (SMILES)
1 | < 1 | 19.3 |  | O=C(CNC(=O)c1ccc(F)cc1)NC(c1ccccc1)c1cccc(C(F)(F)F)c1 (centres undefined)
2 | < 1 |  | 9.7 | O=C(CNC(=O)c1ccc(F)cc1)NC(c1cccc(F)c1)c1cccc(F)c1
3 | 7 (≈ 17.3 µM) | 8.6 |  | N#Cc1ccc(C(=O)NCC(=O)NC(c2ccccc2)c2ccc(Cl)cc2)cc1 (centres undefined)
4 | < 1 | 926 | 887 | O=C(CCc1ccccc1)NCC(=O)NC(c1ccccc1)c1ccc(Cl)cc1 (centres undefined)
